In patent US20200237742A1, “Serdexmethylphenidate Conjugates, Compositions And Methods Of Use Thereof” (priority 2018, published 2020):
Structures can show the parent of a compound that is named as a salt.

How the values were obtained:
[1] = system: recreational stimulant abusers; assay: Intravenous study, treatment-emergent adverse events; details: SDX Cl 30 mg (N = 31), d-MPH HCl 15 mg (N = 30)
Procedure: A study was conducted in humans to assess the intravenous abuse potential of serdexmethylphenidate relative to unconjugated d-methylphenidate and placebo in recreational stimulant abusers. This was a Phase 1, randomized, double-blind study in which serdexmethylphenidate and d-methylphenidate were administered intravenously in recreational stimulant users with a history of non-oral abuse. In Part A of the study, subjects (Cohort 1) participated in a dose-escalation phase to determine the optimal dose of intravenous d-methylphenidate based on tolerability and abuse-related pharmacodynamic assessments. […] The doses of serdexmethylphenidate and d-methylphenidate are equivalent with respect to molar amount of d-methylphenidate. FDA-recommended abuse potential measures and blood samples were collected at different times after dosing. Safety assessments were performed throughout the study.

[2] = system: healthy, nondependent, recreational stimulant users with intranasal insufflation experience; assay: Intranasal abuse potential study, VAS pharmacodynamic assessments
From the text: “Ease of Insufflation” VAS is the measure that assesses the difficulty of snorting the study drugs. Subjects will respond to the statement “Snorting this drug was:” The question will be scored using a 0-100 points unipolar VAS anchored on the left with “Very Easy” (score of 0) and anchored on the right with “Very Difficult” (score of 100).
The study consisted of a Screening Period, an in-clinic Drug Discrimination Phase, a Treatment Phase, and a Follow-Up Visit.
Subjects who successfully completed the Screening Period returned to the clinic to complete the Drug Discrimination Phase. […] Subjects who successfully completed the Drug Discrimination Phase remained as inpatients to enter the Treatment Phase. The Drug Discrimination Phase was a double-blind, intranasal, single-dose, 2-treatment, 2-period, 2-sequence, randomized, crossover design.
All subjects were required to fast for at least 8 hours prior to each dose of study drug until approximately 4 hours after each dose. Abuse potential measures and pharmacokinetic samples were collected at different times after the administration of study drug. Subjects who successfully completed the Drug Discrimination Phase and who qualified for the Treatment Phase remained as inpatients to enter the Treatment Phase.
The placebo dose consisted of 80 mg of microcrystalline cellulose to create the same volume.
On dosing days in the Treatment Phase, blood samples were collected for the measurement of the plasma concentrations of SDX, d-methylphenidate (d-MPH), 1-methylphenidate (1-MPH) and ritalinic acid at predose and at 0.25, 0.5, 0.75, 1, 1.5, 2, 3, 4, 5, 6, 7, 8, 9, 10, 12, 16, 24, 36, and 48 hours ±5 minutes after each dose of study drug. […] All VAS pharmacodynamic assessments except Take Drug Again and Overall Drug Liking were performed at 0.25, 0.5, 0.75, 1, 1.5, 2, 3, 4, 5, 6, 7, 8, 10, 12, 24 hours ±5 minutes postdose. In addition, predose assessments of Feeling High, and Drowsiness/Alertness were collected. The Take Drug Again and Overall Drug Liking VAS assessments were performed at 12 and 24 hours ±5 minutes postdose. Ease of Nasal Insufflation scores were completed within 5 minutes after the completion of each intranasal drug administration during the Treatment Phase.

[3] = system: recreational stimulant abusers; assay: Intravenous abuse potential study, VAS pharmacodynamic assessments; assay type: in vivo, human
From the text: “Drug liking” score, used herein, is the score used to assess the degree that a human participant likes a drug effect at the time the question is being asked (that is, at the moment). It is scored using a 0 to 100 point bipolar visual analogue scale (VAS) anchored in the center with a neutral anchor of “neither like nor dislike” (score of 50), on the left with “strong disliking” (score of 0) and on the right with “strong liking” (score of 100).
“Euphoria” or “Feeling High” score, used herein, is the term to describe the score used to assess the degree that a human participant is high at the time the question is being asked (that is, at the moment). It is scored using a 0 to 100 point unipolar visual analogue scale (VAS) anchored on the left with “Not at All” (score of 0) and on the right with “Extremely” (score of 100).
“Take Drug Again” score, used herein, is the term to describe the score used to assess the degree that a human participant wants to take the drug again, if given the opportunity, based on his/her opinion now, i.e., at the time the question is being asked. It is scored using a 0 to 100 point unipolar visual analogue scale (VAS) anchored on the left with “Definitely Would Not” (score of 0) and on the right with “Definitely Would” (score of 100).
“Overall Drug Liking” score, used herein, is the term to describe the score used to assess the human subject's global perception of drug liking (i.e., the subjective effects over the whole course of the drug experience including any carryover effects). Subjects respond to the statement “Overall, my liking for this drug is.” The question is scored using a 0-100 point bipolar VAS anchored on the left with “Strong Disliking” (score of 0); “Neither Like nor Dislike” (score of 50) in the middle, and anchored on the right with “Strong Liking” (score of 100). This scale has the advantage of the human subject being relatively less affected or unaffected by acute study drug effects (if any) by the time of the assessment.
“Good Effects” score, used herein, is the term to describe the score used to assess the degree that a human participant is feeling good drug effects at the time the question is being asked (that is, at the moment). Subjects respond to the statement “At this moment, I can feel good drug effects.” It is scored using a 0 to 100 point unipolar visual analogue scale (VAS) anchored on the left with “Not at All” (score of 0) and on the right with “Extremely” (score of 100).
Safety assessments were performed throughout the study.

[4] = 12 hours, SDX Cl 80 mg, d-MPH HCl 40 mg
[5] = 24 hours, SDX Cl 80 mg, d-MPH HCl 40 mg
[6] = 12 hours, SDX Cl 30 mg vs placebo
[7] = 12 hours, SDX Cl 30 mg, d-MPH HCl 15 mg
[8] = 24 hours, SDX Cl 30 mg vs placebo
[9] = 24 hours, SDX Cl 30 mg, d-MPH HCl 15 mg
[10] = 12 hours, d-MPH HCl 15 mg vs SDX Cl 30 mg
[11] = 24 hours, d-MPH HCl 15 mg vs SDX Cl 30 mg
[12] = Emax, d-MPH HCl 15 mg vs SDX Cl 30 mg
[13] = d-MPH HCl 15 mg vs SDX Cl 30 mg

## COC(=O)[C@H](c1ccccc1)[C@H]1CCCCN1C(=O)OC[n+]1cccc(C(=O)N[C@@H](CO)C(=O)O)c1.[Cl-] [serdexmethylphenidate chloride]
[1]
  TEAE: Change in sustained attention: 0 (0.0) n (%)
  TEAE: Dry mouth: 0 (0.0) n (%)
  TEAE: Energy increased: 2 (6.5) n (%)
  TEAE: Euphoric mood: 4 (12.9) n (%)
  TEAE: Feeling abnormal: 1 (3.2) n (%)
  TEAE: Feeling hot: 2 (6.5) n (%)
  TEAE: Feeling jittery: 0 (0.0) n (%)
  TEAE: Feeling of relaxation: 0 (0.0) n (%)
  TEAE: Headache: 1 (3.2) n (%)
  TEAE: Heart rate increased: 0 (0.0) n (%)
  TEAE: Hyperhidrosis (sweaty hands): 1 (3.2) n (%)
  TEAE: Hypervigilance: 4 (12.9) n (%)
  TEAE: Nausea: 0 (0.0) n (%)
  TEAE: Palpitations: 0 (0.0) n (%)
  TEAE: Paraesthesia (tingling): 0 (0.0) n (%)
  TEAE: Sinus tachycardia: 0 (0.0) n (%)
  TEAE: Somnolence: 1 (3.2) n (%)
  TEAE: Tachycardia: 0 (0.0) n (%)
[2]; [4]
  Median Overall Drug Liking: 58
  Median Take Drug Again: 51
[2]; [5]
  Mean Overall Drug Liking: 59.0
  Median Overall Drug Liking: 55
  Median Take Drug Again: 50
[3]; [6]
  Mean Difference Take Drug Again, A vs C: 9.1
  Overall Drug Liking, Mean difference A vs C: 2.8
[3]; [7]
  Median Overall Drug Liking: 50.0
  Median Take Drug Again: 0.0
[3]; [8]
  Mean Difference Take Drug Again, A vs C: 1.4
  Overall Drug Liking, Mean difference A vs C: 1.2
[3]; [9]
  Median Overall Drug Liking: 50.0
  Median Take Drug Again: 0.0
[3]; Emax, SDX Cl 30 mg vs placebo
  Mean Difference Take Drug Again, A vs C: 6.0
  Overall Drug Liking, Mean difference A vs C: 1.4
[3]; SDX Cl 30 mg vs placebo
  Feeling High Emax, Mean difference A vs C: 3.4
  Good Effects Emax, Mean difference A vs C: 2.2
[3]; SDX Cl 30 mg vs placebo, bipolar VAS
  Median Difference Drug Liking Emax, A vs C: 0.5

## COC(=O)[C@H](c1ccccc1)[C@H]1CCCCN1 [d-methylphenidate hydrochloride, d-threo-methylphenidate hydrochloride]
[1]
  TEAE: Change in sustained attention: 2 (6.7) n (%)
  TEAE: Dry mouth: 6 (20.0) n (%)
  TEAE: Energy increased: 1 (3.3) n (%)
  TEAE: Euphoric mood: 17 (56.7) n (%)
  TEAE: Feeling abnormal: 2 (6.7) n (%)
  TEAE: Feeling hot: 6 (20.0) n (%)
  TEAE: Feeling jittery: 2 (6.7) n (%)
  TEAE: Feeling of relaxation: 1 (3.3) n (%)
  TEAE: Headache: 1 (3.3) n (%)
  TEAE: Heart rate increased: 5 (16.7) n (%)
  TEAE: Hyperhidrosis (sweaty hands): 4 (13.3) n (%)
  TEAE: Hypervigilance: 10 (33.3) n (%)
  TEAE: Nausea: 3 (10.0) n (%)
  TEAE: Palpitations: 2 (6.7) n (%)
  TEAE: Paraesthesia (tingling): 2 (6.7) n (%)
  TEAE: Sinus tachycardia: 4 (13.3) n (%)
  TEAE: Somnolence: 4 (13.3) n (%)
  TEAE: Tachycardia: 4 (13.3) n (%)
[2]; [4]
  Median Overall Drug Liking: 87
  Median Take Drug Again: 91
[2]; [5]
  Median Overall Drug Liking: 82
  Median Take Drug Again: 94
[2]; 24 hours, d-MPH HCl 40 mg vs SDX Cl 80 mg
  Mean Difference Overall Drug Liking, B vs A: statistically higher
[3]; [7]
  Mean Overall Drug Liking: 68.0
  Median Overall Drug Liking: 73.0
[3]; [10]
  Mean Difference Take Drug Again, B vs A: 43.3
  Overall Drug Liking, Median difference B vs A: 16.0
[3]; [11]
  Mean Difference Take Drug Again, B vs A: 39.2
  Overall Drug Liking, Median difference B vs A: 13.5
[3]; [12]
  Mean Difference Take Drug Again, B vs A: 43.1
  Overall Drug Liking, Median difference B vs A: 18.0
[3]; [13]
  Feeling High Emax, Median difference B vs A: 67.0
  Good Effects Emax, Median difference B vs A: 73.0
[3]; d-MPH HCl 15 mg vs SDX Cl 30 mg, bipolar VAS
  Median Difference Drug Liking Emax, B vs A: 29.0
